Measured values from PMC10135057, “Molecular Modification of Kex2 P1’ Site Enhances Expression and Druggability of Fungal Defensin” (Antibiotics, 2023).
Several values for one entry are separate records, joined by “and”; a condition that tells them apart may be missing. Identical values can stand only once.

How the values were obtained:
S. aureus ATCC 43300 [1] = experiment: Stability in mouse serum (MIC after treatment); format: in vitro ADME, Staphylococcus aureus; settings: mouse serum (25%), 1–4 h; MIC vs S. aureus ATCC 43300; triplicate
Description: (§1) The tolerance of FNZ to temperature and pH was evaluated. The stability of FNZ in simulated gastric fluid, artificial intestinal fluid and mouse serum was carried out as previously described. […] All assays were conducted in triplicate.

S. aureus ATCC 43300 [2] = experiment: Thermal stability (MIC after heat treatment); format: physicochemical, Staphylococcus aureus; settings: MIC vs S. aureus ATCC 43300, triplicate
Description: as §1

S. aureus ATCC 43300 [3] = experiment: Salts stability (MIC after incubation with Na+ or Mg2+); format: cell-based, Staphylococcus aureus; settings: for MIC: read-out: MIC after treatment
[4] = test system: Pseudomonas aeruginosa CICC 20625; experiment: Minimal inhibitory concentration (MIC); format: cell-based; settings: CICC20625, CLSI procedure, triplicate
Description: (§2) The minimal inhibitory concentrations (MICs) assay was performed according to the CLSI procedures with the final peptide concentrations of 256, 128, 64, 32, 16, 8, 4, 2, 1, and 0.5 μg/mL, respectively. All tests were conducted in triplicate.

[5] = test system: Salmonella enterica ATCC 13076; experiment: Minimal inhibitory concentration (MIC); format: cell-based; settings: ATCC13076, CLSI procedure, triplicate
Description: as §2

[6] = test system: Staphylococcus aureus ATCC 43300; experiment: microbe, parasite or virus in culture; format: cell-based; settings: Staphylococcus aureus, ATCC43300
Description: as §2

[7] = test system: Escherichia coli ATCC 25922; experiment: microbe, parasite or virus in culture; format: cell-based; settings: Escherichia coli, ATCC25922
Description: as §2

S. aureus ATCC 25923 = experiment: microbe, parasite or virus in culture; format: cell-based, Staphylococcus aureus; settings: Staphylococcus aureus, ATCC25923
Description: as §2

S. aureus E48 = experiment: microbe, parasite or virus in culture; format: cell-based, Staphylococcus aureus; settings: Staphylococcus aureus, E48
Description: as §2

S. aureus CVCC 546 = experiment: microbe, parasite or virus in culture; format: cell-based, Staphylococcus aureus; settings: Staphylococcus aureus, CVCC546
Description: as §2

[8] = test system: S. epidermidis ATCC 12228; experiment: microbe, parasite or virus in culture; format: cell-based, Staphylococcus epidermidis; settings: Staphylococcus epidermidis, ATCC12228
Description: as §2

S. aureus ATCC 43300 [9] = experiment: Bactericidal kinetics (time-killing curves); format: cell-based, Staphylococcus aureus; settings: 2× MIC, within 2 h; S. aureus ATCC 43300, 10^6 CFU/mL
Description: The S. aureus ATCC 43300 in logarithmic growth stage was diluted to a final concentration of 10^6 CFU/mL. […] Samples were taken at 0, 0.5, 1, 2, 4, 6, 8, 10, 20, and 24 h, serially diluted, and visible colonies were counted on MHA plates.

S. aureus ATCC 43300 [10] = experiment: Stability in artificial intestinal fluid (MIC after treatment); format: in vitro ADME, Staphylococcus aureus; settings: 10 min, MIC vs S. aureus ATCC 43300, triplicate
Description: as §1

S. aureus ATCC 43300 [11] = experiment: Stability in simulated gastric fluid (MIC after treatment); format: in vitro ADME, Staphylococcus aureus; settings: 1 h, MIC vs S. aureus ATCC 43300, triplicate
Description: as §1

S. aureus ATCC 43300 [12] = experiment: Post-antibiotic effect (PAE); format: cell-based, Staphylococcus aureus; settings: 2× MIC, 2 h exposure, 10^8 CFU/mL S. aureus ATCC 43300, 1000-fold dilution
Text: After the exposed time, the bacteria suspension was reconstructed by dilution to 1000 times with MHB medium to remove the influence of peptides and antibiotics. Samples were taken every hour, and then coated on MHA plate after gradient dilution. The calculation formula was from previous studies.

S. aureus ATCC 43300 [13] = experiment: microbe, parasite or virus in culture; format: cell-based, Staphylococcus aureus
Description: The effects of combination were evaluated by calculating the FICI. FICI ≤ 0.5 was defined as synergy, 0.5 < FICI ≤ 1 was defined as additivity, 1 < FICI ≤ 4 was defined as indifference, and FICI > 4 was defined as antagonism.

S. aureus ATCC 43300 [14] = experiment: pH stability (MIC after pH treatment); format: physicochemical, Staphylococcus aureus; settings: MIC vs S. aureus ATCC 43300, triplicate
Description: as §1

[15] = 50 mM Mg2+, 37 °C, 1 h, MIC vs S. aureus ATCC 43300, triplicate
[16] = 100 mM Mg2+, 37 °C, 1 h, MIC vs S. aureus ATCC 43300, triplicate
[17] = 100 mM Na+, 37 °C, 1 h, MIC vs S. aureus ATCC 43300, triplicate
[18] = 150 mM Mg2+, 37 °C, 1 h, MIC vs S. aureus ATCC 43300, triplicate
[19] = 150 mM Na+, 37 °C, 1 h, MIC vs S. aureus ATCC 43300, triplicate
[20] = 300 mM Mg2+, 37 °C, 1 h, MIC vs S. aureus ATCC 43300, triplicate
[21] = 300 mM Na+, 37 °C, 1 h, MIC vs S. aureus ATCC 43300, triplicate
[22] = 500 mM Mg2+, 37 °C, 1 h, MIC vs S. aureus ATCC 43300, triplicate
[23] = 500 mM Na+, 37 °C, 1 h, MIC vs S. aureus ATCC 43300, triplicate

With `CN[C@H](CC(C)C)C(=O)N[C@H]1C(=O)N[C@@H](CC(N)=O)C(=O)N[C@H]2C(=O)N[C@H]3C(=O)N[C@H](C(=O)N[C@H](C(=O)O)c4cc(O)cc(O)c4-c4cc3ccc4O)[C@H](O)c3ccc(c(Cl)c3)Oc3cc2cc(c3O[C@@H]2O[C@H](CO)[C@@H](O)[C@H](O)[C@H]2O[C@H]2C[C@](C)(N)[C@H](O)[C@H](C)O2)Oc2ccc(cc2Cl)[C@H]1O` [Vancomycin, vancomycin] the MIC after treatment (S. aureus ATCC 43300 [1]) was 1 μg/mL and 0.67 μM, the MIC after treatment (S. aureus ATCC 43300 [2]; 20 °C for 1 h) was 1 μg/mL and 0.67 μM and the MIC after treatment (S. aureus ATCC 43300 [2]; 40 °C for 1 h) was 1 μg/mL and 0.67 μM. For the same compound, the MIC after treatment (S. aureus ATCC 43300 [2]; 60 °C for 1 h) was 1 μg/mL and 0.67 μM, the MIC after treatment (S. aureus ATCC 43300 [2]; 80 °C for 1 h) was 1 μg/mL and 0.67 μM and the MIC after treatment (S. aureus ATCC 43300 [2]; 100 °C for 1 h) was 1 μg/mL and 0.67 μM. For the same compound, the MIC after treatment (S. aureus ATCC 43300 [3]; [15]) was 1 µg/mL, the MIC (S. aureus ATCC 43300 [3]; [15]) was 0.67 µM and the MIC after treatment (S. aureus ATCC 43300 [3]; [16]) was 1 µg/mL. The MIC (S. aureus ATCC 43300 [3]; [16]) was 0.67 µM, the MIC after treatment (S. aureus ATCC 43300 [3]; [17]) was 1 µg/mL and the MIC (S. aureus ATCC 43300 [3]; [17]) was 0.67 µM. It also gave an MIC after treatment (S. aureus ATCC 43300 [3]; [18]) of 1 µg/mL, an MIC (S. aureus ATCC 43300 [3]; [18]) of 0.67 µM and an MIC after treatment (S. aureus ATCC 43300 [3]; [19]) of 1 µg/mL. For the same compound, the MIC (S. aureus ATCC 43300 [3]; [19]) was 0.67 µM, the MIC after treatment (S. aureus ATCC 43300 [3]; [20]) was 1 µg/mL and the MIC (S. aureus ATCC 43300 [3]; [20]) was 0.67 µM. The MIC after treatment (S. aureus ATCC 43300 [3]; [21]) was 1 µg/mL, the MIC (S. aureus ATCC 43300 [3]; [21]) was 0.67 µM and the MIC after treatment (S. aureus ATCC 43300 [3]; [22]) was 1 µg/mL. For the same compound, the MIC (S. aureus ATCC 43300 [3]; [22]) was 0.67 µM, the MIC after treatment (S. aureus ATCC 43300 [3]; [23]) was 1 µg/mL and the MIC (S. aureus ATCC 43300 [3]; [23]) was 0.67 µM. The MIC (S. aureus ATCC 43300 [3]; Staphylococcus aureus, ATCC43300, 1 h) was 1 µg/mL and 0.67 µM, the MIC [4] was > 128 µg/mL and > 86 µM and the MIC [5] was > 128 µg/mL and > 86 µM. The MIC [6] was 1 µg/mL and 0.67 µM, the MIC [7] was 128 µg/mL and 86 µM and the MIC (S. aureus ATCC 25923) was 4 µg/mL and 2.69 µM. For the same compound, the MIC (S. aureus E48) was 1 µg/mL and 0.67 µM, the MIC (S. aureus CVCC 546) was 1 µg/mL and 0.67 µM and the MIC [8] was 1 µg/mL and 0.67 µM. The “Decrease of bacterial counts (log10 CFU/mL)” value (S. aureus ATCC 43300 [9]) was 0.216 log10 CFU/mL, the MIC after treatment (S. aureus ATCC 43300 [10]) was 1 μg/mL and 0.67 μM and the MIC after treatment (S. aureus ATCC 43300 [11]) was 1 μg/mL and 0.67 μM. For the same compound, the PAE (S. aureus ATCC 43300 [12]) was 1.3 h, the MIC (S. aureus ATCC 43300 [13]; Staphylococcus aureus, ATCC43300, 16 h, read-out: MICa (MIC of drug alone)) was 1 µg/mL and the “Combination effect with FNZ (in words)” value (S. aureus ATCC 43300 [13]; checkerboard, S. aureus ATCC 43300) was “synergistic effect”. For the same compound, the FIC (S. aureus ATCC 43300 [13]; combination FNZ + Van, S. aureus ATCC 43300) was 0.125, the “MICc (MIC of drug used in combination)” value (S. aureus ATCC 43300 [13]; combination FNZ + Van, S. aureus ATCC 43300, checkerboard, 37 °C, 16 h) was 0.125 µg/mL and the “FICI (fractional inhibitory concentration index)” value (S. aureus ATCC 43300 [13]; combination of FNZ with the named antibiotic, S. aureus ATCC 43300, ≤0.5 synergy, 0.5-1 additivity, 1-4 indifference, >4 antagonism) was 0.25 and < 0.5. For the same compound, the MIC after treatment (S. aureus ATCC 43300 [14]; pH 2) was 1 μg/mL and 0.67 μM, the MIC after treatment (S. aureus ATCC 43300 [14]; pH 4) was 1 μg/mL and 0.67 μM and the MIC after treatment (S. aureus ATCC 43300 [14]; pH 6) was 1 μg/mL and 0.67 μM. For the same compound, the MIC after treatment (S. aureus ATCC 43300 [14]; pH 8) was 1 μg/mL and 0.67 μM and the MIC after treatment (S. aureus ATCC 43300 [14]; pH 10) was 1 μg/mL and 0.67 μM.
